# Assay results taken from patent US20170355705A1 (GlaxoSmithKline Intellectual Property (No.2) Limited, priority 2014, published 2017).
# Where a name gives a salt, the structure may show the parent alone.
# Molecular target: T1, SIRT1 (Homo sapiens, UniProt Q96EB6)
# T1 sequence (Q96EB6 1-747): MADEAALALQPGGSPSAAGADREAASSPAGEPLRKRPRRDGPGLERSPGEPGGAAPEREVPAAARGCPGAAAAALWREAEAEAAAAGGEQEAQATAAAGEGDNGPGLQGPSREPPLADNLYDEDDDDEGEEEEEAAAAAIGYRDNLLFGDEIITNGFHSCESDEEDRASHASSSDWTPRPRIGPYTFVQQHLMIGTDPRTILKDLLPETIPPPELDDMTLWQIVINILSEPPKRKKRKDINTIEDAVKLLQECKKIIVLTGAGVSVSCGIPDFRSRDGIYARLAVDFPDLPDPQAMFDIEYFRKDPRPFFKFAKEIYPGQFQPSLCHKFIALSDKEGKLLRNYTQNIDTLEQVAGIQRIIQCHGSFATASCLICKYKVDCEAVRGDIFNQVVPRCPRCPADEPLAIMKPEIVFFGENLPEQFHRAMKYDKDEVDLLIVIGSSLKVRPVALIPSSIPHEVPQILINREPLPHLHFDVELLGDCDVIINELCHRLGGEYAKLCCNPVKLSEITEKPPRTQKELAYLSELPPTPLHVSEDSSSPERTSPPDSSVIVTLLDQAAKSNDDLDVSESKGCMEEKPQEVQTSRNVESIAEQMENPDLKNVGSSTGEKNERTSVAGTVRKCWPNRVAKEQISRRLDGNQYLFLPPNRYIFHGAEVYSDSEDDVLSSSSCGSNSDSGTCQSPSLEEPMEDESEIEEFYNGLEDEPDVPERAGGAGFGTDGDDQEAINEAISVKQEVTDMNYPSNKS
# Assay: Trp mass spectrometry assay of SIRT1 activity (EC1.5, percent maximum activation)
# Assay type: biochemical
# Settings: Trp mass spectrometry assay; for TRP Activity (EC1.5): EC1.5 = concentration giving 150% activation of SIRT1
# Summary of the method: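 Mass spectrometry read-out (OAADPR formed, or deacetylated Trp peptide) after a 25 min NAD-dependent deacetylation by E. coli-expressed His-SIRT1, stopped with formic acid.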
# [1] = percent maximum activation of SIRT1
# [2] = 0.5 μM peptide substrate, 120 μM βNAD+, 10 nM SIRT1, 25 minutes at 25° C.
TRP Activity (EC1.5),TRP MAX RESP (percent maximum fold activation) [1],"TRP Activity (EC1.5, concentration of test compound that results in 150% activation of SIRT1) [2]",TRP MAX RESP (percent maximum fold activation) [2],SMILES
A (EC1.5<1 μM),A (Fold activation ≧150%),,,"Cc1cc(-c2ccc3c(n2)N(C(=O)Nc2cncc(F)n2)[C@H]2CCN3C2)ccn1 [Example 190, (4S)-N-(6-fluoropyrazin-2-yl)-7-(2-methylpyridin-4-yl)-3,4-dihydro-1,4-methanopyrido[2,3-b][1,4]diazepine-5(2H)-carboxamide]"
B (EC1.5 1-25 μM),A (Fold activation ≧150%),,,"Cn1cc(-c2nc3c(cc2Cl)N2CC[C@@H](C2)N3C(=O)Nc2ccnc(OC[C@H](O)CO)c2)cn1 [Example 106, (4S)-8-chloro-N-(2-((R)-2,3-dihydroxypropoxy)pyridin-4-yl)-7-(1-methyl-1H-pyrazol-4-yl)-3,4-dihydro-1,4-methanopyrido[2,3-b][1,4]diazepine-5(2H)-carboxamide]"
C (EC1.5>25 μM),B (Fold Activation <150%),,,"Cc1cc(-c2nc3c(cc2Cl)N2CC[C@@H](C2)N3C(=O)Nc2cncc(OC[C@H](O)CO)n2)ccn1 [Example 97, (4S)-8-chloro-N-(6-((R)-2,3-dihydroxypropoxy)pyrazin-2-yl)-7-(2-methylpyridin-4-yl)-3,4-dihydro-1,4-methanopyrido[2,3-b][1,4]diazepine-5(2H)-carboxamide]"
,,B (EC1.5 1-25 μM),A (Fold activation ≧150%),"Cc1cc(-c2ccc3c(n2)N(C(=O)Nc2cc(-c4cnc(C)o4)ccn2)C2CCN3C2)ccn1 (stereo in doubt) [Example 335, (4S)-N-(4-(2-methyloxazol-5-yl)pyridin-2-yl)-7-(2-methylpyridin-4-yl)-3,4-dihydro-1,4-methanopyrido[2,3-b][1,4]diazepine-5(2H)-carboxamide, Hydrochloride]"
A (EC1.5<1 μM),A (Fold activation ≧150%),,,"O=C(Nc1ccnc(OCC(O)CO)c1)N1c2nc(-c3cccc(C(F)(F)F)c3)ccc2N2CC[C@H]1C2 (stereo in doubt) [Example 170, (4S)-N-(2-((S)-2,3-dihydroxypropoxy)pyridin-4-yl)-7-(3-(trifluoromethyl)phenyl)-3,4-dihydro-1,4-methanopyrido[2,3-b][1,4]diazepine-5(2H)-carboxamide]"
,,B (EC1.5 1-25 μM),A (Fold activation ≧150%),"C[C@@H]1COCCN1c1ccc2c(n1)N(C(=O)Nc1cccnc1)[C@H]1CCN2C1 [Example 204, (4S)-7-((R)-3-methylmorpholino)-N-(pyridin-3-yl)-3,4-dihydro-1,4-methano-pyrido[2,3-b][1,4]diazepine-5(2H)-carboxamide]"
A (EC1.5<1 μM),A (Fold activation ≧150%),,,"Cc1cc(-c2cccc(C(F)(F)F)c2)nc2c1N1CC[C@@H](C1)N2C(=O)Nc1ccnc(OC[C@@H](O)CO)c1 [Example 87, (4S)-N-(2-((S)-2,3-dihydroxypropoxy)pyridin-4-yl)-9-methyl-7-(3-(trifluoromethyl)phenyl)-3,4-dihydro-1,4-methanopyrido[2,3-b][1,4]diazepine-5(2H)-carboxamide]"
,,B (EC1.5 1-25 μM),A (Fold activation ≧150%),"CC(C)(CO)COc1nccc(NC(=O)N2c3nc(-c4cccc(C(F)(F)F)c4)ccc3N3CC[C@H]2C3)n1 [Example 321, (4S)-N-(2-(3-hydroxy-2,2-dimethylpropoxy)pyrimidin-4-yl)-7-(3-(trifluoromethyl)phenyl)-3,4-dihydro-1,4-methanopyrido[2,3-b][1,4]diazepine-5(2H)-carboxamide]"
,,C (EC1.5>25 μM),B (Fold Activation <150%),"CC1CN(c2ccc3c(n2)N(C(=O)Nc2cnccn2)[C@H]2CCN3C2)CCN1 (single isomer, unassigned) [Example 229]"
A (EC1.5<1 μM),A (Fold activation ≧150%),,,"O=C(Nc1cncc(OC[C@@H](O)CO)n1)N1c2nc(-c3cccc(C(F)(F)F)c3)c(Cl)cc2N2CC[C@H]1C2 [Example 45, (4S)-8-chloro-N-(6-((S)-2,3-dihydroxypropoxy)pyrazin-2-yl)-7-(3-(trifluoromethyl)phenyl)-3,4-dihydro-1,4-methanopyrido[2,3-b][1,4]diazepine-5(2H)-carboxamide]"
,,A (EC1.5<1 μM),A (Fold activation ≧150%),"CC(C)(CO)COc1cncc(NC(=O)N2c3nc(-c4cccc(C(F)(F)F)c4)ccc3N3CC[C@H]2C3)n1 [Example 304, (4S)-N-(6-(3-hydroxy-2,2-dimethylpropoxy)pyrazin-2-yl)-7-(3-(trifluoromethyl)phenyl)-3,4-dihydro-1,4-methanopyrido[2,3-b][1,4]diazepine-5(2H)-carboxamide]"
A (EC1.5<1 μM),A (Fold activation ≧150%),,,"O=C(Nc1ccnc(OC[C@H](O)CO)n1)N1c2nc(-c3cccc(C(F)(F)F)c3)c(Cl)cc2N2CC[C@H]1C2 [Example 50, (4S)-8-chloro-N-(2-((R)-2,3-dihydroxypropoxy)pyrimidin-4-yl)-7-(3-(trifluoromethyl)phenyl)-3,4-dihydro-1,4-methanopyrido[2,3-b][1,4]diazepine-5(2H)-carboxamide]"
B (EC1.5 1-25 μM),A (Fold activation ≧150%),,,"Cn1cc(-c2nc3c(cc2Cl)N2CC[C@@H](C2)N3C(=O)Nc2ccnc(OC[C@@H](O)CO)c2)cn1 [Example 105, (4S)-8-chloro-N-(2-((S)-2,3-dihydroxypropoxy)pyridin-4-yl)-7-(1-methyl-1H-pyrazol-4-yl)-3,4-dihydro-1,4-methanopyrido[2,3-b][1,4]diazepine-5(2H)-carboxamide]"
C (EC1.5>25 μM),B (Fold Activation <150%),,,"Cc1cc(-c2nc3c(cc2Cl)N2CC[C@@H](C2)N3C(=O)Nc2ccnc(O[C@@H]3CCOC3)n2)ccn1 [Example 22, (4S)-8-chloro-7-(2-methylpyridin-4-yl)-N-(2-(((R)-tetrahydrofuran-3-yl)oxy)pyrimidin-4-yl)-3,4-dihydro-1,4-methanopyrido[2,3-b][1,4]diazepine-5(2H)-carboxamide]"
,,B (EC1.5 1-25 μM),A (Fold activation ≧150%),"Cc1ccc(-c2ccc3c(n2)N(C(=O)Nc2cncc(C)n2)[C@H]2CCN3C2)cn1 [Example 238, (4S)-N-(6-methylpyrazin-2-yl)-7-(6-methylpyridin-3-yl)-3,4-dihydro-1,4-methanopyrido[2,3-b][1,4]diazepine-5(2H)-carboxamide]"
B (EC1.5 1-25 μM),A (Fold activation ≧150%),,,"Cc1ccc(-c2ccc3c(n2)N(C(=O)Nc2cnccn2)[C@H]2CCN3C2)c(C)n1 [Example 200, (4S)-7-(2,6-dimethylpyridin-3-yl)-N-(pyrazin-2-yl)-3,4-dihydro-1,4-methanopyrido[2,3-b][1,4]diazepine-5(2H)-carboxamide]"
B (EC1.5 1-25 μM),A (Fold activation ≧150%),,,"Cc1cc(-c2ccc3c(n2)N(C(=O)Nc2nccc4nccnc24)[C@H]2CCN3C2)ccn1 [Example 152, (4S)-7-(2-methylpyridin-4-yl)-N-(pyrido[3,4-b]pyrazin-5-yl)-3,4-dihydro-1,4-methanopyrido[2,3-b][1,4]diazepine-5(2H)-carboxamide]"
B (EC1.5 1-25 μM),A (Fold activation ≧150%),,,"O=C(Nc1ccnc(OC2CCOCC2)n1)N1c2nc(-c3cccc(C(F)(F)F)c3)c(Cl)cc2N2CC[C@H]1C2 [Example 55, (4S)-8-chloro-N-(2-((tetrahydro-2H-pyran-4-yl)oxy)pyrimidin-4-yl)-7-(3-(trifluoromethyl)phenyl)-3,4-dihydro-1,4-methanopyrido[2,3-b][1,4]diazepine-5(2H)-carboxamide]"
A (EC1.5<1 μM),A (Fold activation ≧150%),,,"Cc1cc(-c2cc(C)c3c(n2)N(C(=O)Nc2cccnc2)[C@H]2CCN3C2)ccn1 [Example 84, (4S)-9-methyl-7-(2-methylpyridin-4-yl)-N-(pyridin-3-yl)-3,4-dihydro-1,4-methanopyrido[2,3-b][1,4]diazepine-5(2H)-carboxamide]"
